Experimental data: PMC11098465, “A comparative analysis of peptide-delivered antisense antibiotics using diverse nucleotide mimics” (RNA, 2024)
Several values for one entry are separate records, joined by “and”; a condition that tells them apart may be missing. Equal values may be shown once.

How the values were obtained:
[1] = tested on: acpP::gfp reporter transcript; assay: In vitro translation of acpP::gfp reporter (PURExpress) with western blot; type: biochemical, Salmonella; design: key to Inhibition of translation in vitro: +++: Effect strength is represented by additional (+) signs.; ++: Effect strength is represented by additional (+) signs.; Effect strength is represented by additional (+) signs; details: unconjugated ASO; for Inhibition of in vitro translation of acpP::gfp (in words): western blot of AcpP(1–17)::GFP; for Inhibition of translation in vitro: ASO:RNA 0.6:1 to 5:1, 100 nM RNA, 2 h 37°C, summary grade
Experimental: As a next step, we used a cell-free in vitro translation system ([Popella et al. 2022]) to investigate whether ASO binding to mRNA leads to a block in protein synthesis. As a template, we used the acpP sequence spanning −40 to +51 relative to the AUG start codon fused to a gfp reporter gene (acpP::gfp). This construct was in vitro transcribed, preincubated with different ASOs at different ratios and subsequently translated in vitro. Water was used as a negative control.
For the generation of target RNA::gfp fusion constructs, we used a previously established protocol ([Popella et al. 2022]) and the oligonucleotides JVO-19760/JVO-19761 (Supplemental Table S1) to amplify the genomic region spanning nucleotides –40 to +51 relative to the translational start codon of acpP. The sense oligonucleotide was fused to a T7 promoter sequence for subsequent transcription of the final fusion construct in vitro. The antisense oligonucleotide contained a 30 nt overlapping region with gfp for subsequent fusion PCR with full-length gfp (pXG-10; JVO-19762/JVO-19763) (Supplemental Table S1). The PCR products were purified with NucleoSpin Gel and PCR Clean-up (Macherey-Nagel) according to the manufacturer's instructions, and DNA concentration was quantified with a NanoDrop spectrophotometer (A260 nm).
PCR products were used for T7 RNA polymerase-driven transcription in vitro using the MEGAscript T7 kit (Ambion/Thermo Scientific), according to the manufacturer's instructions and analogous to our previous publication ([Popella et al. 2022]). The concentration of the RNA solution was quantified with Qubit (Fisher Scientific), and the expected product size and RNA integrity were verified on a 6% PAA, 7 M urea gel.
For in vitro translation of target RNA::gfp fusion constructs, the PURExpress In Vitro Protein Synthesis Kit (New England Biolabs, E6800L) was used as described previously ([Popella et al. 2022]). Briefly, the final volume of each in vitro translation reaction was set to 10 µL. One microliter of different concentrations of ASOs ranging from 10 to 0.625 µM was added to 1 µL of in vitro transcribed heat-denatured RNA (1 µM) to adjust the final RNA concentration to 100 nM. The mixtures were preincubated at 37°C for 5 min. Then 4 µL of Solution A and 3 µL of Solution B were added to the preannealed mixtures. After 2 h at 37°C, protein samples were denatured in 1× reducing protein loading buffer (62.6 mM Tris–HCl pH 6.8, 2% SDS, 0.1 mg/mL bromphenol blue, 15.4 mg/mL DTT, 10% glycerol) at 95°C for 5 min.
To visualize in vitro translated proteins, samples were separated on SDS-PAA (12% PAA) gels, with subsequent semi-dry western blot transfer on nitrocellulose membranes. Membranes were blocked with 10% skim milk (in 1× TBS-T) for 1 h and probed with anti-GFP antibody (1:1000; Sigma-Aldrich) in 5% skim milk (in 1× TBS-T) overnight at 4°C. After washing in 1× TBS-T and incubation with an HRP-conjugated secondary antibody (1:5000; Thermo Scientific) in 1× TBS-T, the membrane was incubated with a developing solution kit (Amersham ECL Select Western Blotting Detection Reagent), and protein levels were detected using an ImageQuant LAS 500 (GE Healthcare Life Sciences). Images were processed and band intensities quantified using ImageJ. Protein bands were normalized to the water control.

[2] = tested on: 10 nt long target mRNA (acpP, fully complementary 10mer RNA fragment); assay: Thermal UV melting curves of ASO:RNA duplexes; type: binding, Salmonella; details: unconjugated ASO and 10 nt target RNA, 2 µM each mixed 1:1; 100 mM NaCl, 10 mM phosphate, pH 7.0; UV 260 nm, 10-90°C at 0.5°C/min, five ramps; two-state fit
Experimental: Next, we assessed the melting temperatures of each ASO:RNA duplex across a temperature range of 10°C–90°C (Fig. 3A; Supplemental Fig. S3). In this experiment, we used a fully complementary 10mer RNA fragment instead of the 40 nt long target RNA sequence, because the longer target might form internal secondary structures that could interfere with the measurement of the melting temperature. […] This is in line with previous observations ([Freier and Altmann 1997]) and our EMSA results (Fig. 2). […] The melting temperature of RNA-F and RNA-MOE was around 56°C (Table 1).
Three hundred microliters of 10 nt long target mRNA (2 µM) was mixed with 300 µL of each of the ASOs (2 µM) in phosphate buffer (100 mM NaCl, 10 mM phosphate, pH 7.0). Thermal UV melting curves were recorded at Agilent Cary UV–Vis Multicell Peltier. Before measurement, the samples were overlaid with silicon oil to prevent evaporation during heating. Five temperature ramps with a heating/cooling rate of 0.5°C/min between 10°C and 90°C at 260 nm were collected. All the melting curves were plotted using OriginPro 2023, fit to a two-state transition model with upper and lower baselines to determine Tm as previously reported ([Dietzsch et al. 2022]).

Row | Substance | Inhibition of in vitro translation of acpP::gfp (in words) [1] | Tm of ASO:mRNA complexes [2] | Inhibition of translation in vitro [1]
1 | DNA-PTO: phosphorothioate-modified DNA 10mer ASO, sequence CTCATACTCT, targeting acpP −5 to +5 (DNA, all phosphorothioate, methylation of C not given here) | did not inhibit protein synthesis | 25.8 °C and 25.8 ± 0.7 °C | 
2 | LNA: 2′–4′-locked RNA 10mer ASO, sequence CTCATACTCT, targeting acpP −5 to +5 (all LNA, backbone and methylation of C not given here) | substantially blocking in vitro translation of acpP::gfp at 1.25× molar excess | 87.4 °C and 87.4 ± 2 °C | +++
3 | PMO: phosphorodiamidate morpholino 10mer ASO, sequence CTCATACTCT, targeting acpP −5 to +5 (all phosphorodiamidate morpholino (PMO)) | less pronounced | 41.8 °C and 41.8 ± 0.6 °C | ++
4 | PNA: peptide nucleic acid 10mer ASO, sequence CTCATACTCT, targeting acpP −5 to +5 (all peptide nucleic acid (PNA)) | substantially blocking in vitro translation of acpP::gfp at 1.25× molar excess | 44.3 °C and 44.3 ± 1.1 °C | +++
5 | RNA-F: 2′-fluorinated RNA 10mer ASO, sequence CTCATACTCT, targeting acpP −5 to +5 (all 2'-fluoro, backbone and T or U not given here) | less pronounced |  | ++
6 | RNA-MOE: 2′-methoxyethylated RNA 10mer ASO, sequence CTCATACTCT, targeting acpP −5 to +5 (all 2'-MOE, backbone and methylation of C not given here) | substantially blocking in vitro translation of acpP::gfp at 1.25× molar excess |  | +++
7 | RNA-OMe: 2′-methylated RNA 10mer ASO, sequence CTCATACTCT, targeting acpP −5 to +5 (all 2'-O-methyl, backbone and T or U not given here) | less pronounced | 48.3 °C and 48.3 ± 0.8 °C | 
